Where two headings read alike, the source gives them in different places.
Legend:
SM145/GS 016 (C, R5) = test: Inactivation of cell-free HIV-1 clinical virus; type: cell-based; details: inactivation of cell-free virions, means ± SD
HIV-1 Bal (R5) = test: Inhibition of HIV-1 infection (p24 ELISA); type: cell-based
PBL288 (C, R5) = test: Inactivation of cell-free HIV-1 clinical virus; type: cell-based; details: inactivation of cell-free virions, means ± SD
92/TH/009 (A/E, R5) = test: Inactivation of cell-free HIV-1 clinical virus; type: cell-based; details: inactivation of cell-free virions, means ± SD
KNH1135 (A, R5) = test: microbe, parasite or virus in culture; type: cell-based, HIV-1; details: inactivation of cell-free virions, clinical virus KNH1135 (A, R5); means ± SD
HIV-1 Bal = test: Inactivation of cell-free HIV-1 virions (PEG-6000 precipitation, p24 ELISA); type: cell-based
HIV-1 IIIB (X4) = test: Inhibition of HIV-1 infection (p24 ELISA); type: cell-based
HIV-1 IIIB = test: Inactivation of cell-free HIV-1 virions (PEG-6000 precipitation, p24 ELISA); type: cell-based; details: Human immunodeficiency virus 1, IIIB virus inactivation
Cytotoxicity (CCK-8) = type: cell-based; details: human
Method: Cell viability was detected following the instructions in the protocol provided in the cell counting kit-8 (CCK-8; Dojindo Molecular Technologies, Gaithersburg, MD, USA) as previously described ([Yang et al., 2018]). Briefly, MT-2 cells and CEMx174 517 5.25 M7 cells (3 × 10^4/well) were incubated with compounds at different concentrations at 37°C for 48 h. Then, the supernatant was discarded, and CCK8 diluted 10 times with fresh medium was added (200 μL/well). After 2–6 h of incubation at 37°C, the absorbance at 450 nm was measured using a microplate reader (Tecan, Männedorf, Switzerland).

HIV-1 HXB2 gp120 = molecular target: T1, HIV-1 HXB2 gp120 (Human immunodeficiency virus type 1 group M subtype B, UniProt P04578); test: Flow cytometry competition with gp120 CD4bs-targeting mAbs on CHO-WT cells; type: binding; details: 100 µM
T1 construct: CHO-WT cells expressing HIV-1 HXB2 gp120; host or cells: CHO-WT cells
Method: Flow cytometry was used to detect compounds that competed with gp120 CD4bs-targeting mAbs for binding to gp120. In brief, 100 µL of FD016 at a concentration of 100 µM or PBS was first incubated with CHO-WT cells expressing HIV-1 HXB2 gp120 for 30 min at room temperature, and then gp120 CD4bs-targeting mAbs (5 μg/mL, 100 µL) and FITC-labeled goat anti-human secondary antibody were added successively. After three washes, the cells were analyzed with flow cytometry. ELISA was carried out to detect the activity of compounds that inhibit the binding of soluble CD4 (sCD4) or gp120 CD4bs-targeting mAbs to gp120 as previously described ([Si et al., 2004]; [Curreli et al., 2014]). Briefly, for sCD4 and gp120 binding, 50 µL of HIV-1 IIIB gp120 at 0.5 μg/mL was captured on polystyrene plate coated with sheep anti-gp120 antibody D7324 (Aalto Bio Reagents). sCD4 (ImmunoDiagnostics, Inc.) at 200 ng/mL was then added in the presence of an equal volume of different concentrations of compounds or PBS and incubated at 37°C for 1 h. […] After adding 3,3′,5,5′-tetramethylbenzidine chromogen substrate and sulfuric acid, the absorbance at 450 nm (A450) was recorded using a Microplate Reader (Tecan, Männedorf, Switzerland).

[1] = molecular target: T2, 6HB formation between N36 and C34-biotin (Human immunodeficiency virus type 1 group M subtype B, UniProt P04578); test: ELISA inhibition of six-helix bundle formation; type: biochemical, HIV-1; details: IC50, inhibition of 6HB formation between N36 and C34-biotin, peptides 0.5 μM final
T2 construct: preincubated with N36 peptide (2 μM, 50 μL) at 37°C for 1 h; purchased NIH AIDS Reagent Program
Method: An inhibitor (compound or C-peptide control) at graded concentrations was preincubated with N36 peptide (2 μM, 50 μL) at 37°C for 1 h. […] Subsequently, 50 μL of the mixture were added to the wells of the NC-1-coated plate, followed by incubation for 1 h. Then, HRP-labeled streptavidin and the substrate were added sequentially. The optical density at 450 nm was measured using a microplate reader (Tecan, Männedorf, Switzerland).

[2] = Human immunodeficiency virus 1, laboratory-adapted strain Bal, CEMx174 5.25 M7 cells, p24 ELISA, read-out: IC50, inhibition of HIV-1 Bal infection
[3] = Human immunodeficiency virus 1, MT2, laboratory-adapted strain IIIB, MT-2 cells, p24 ELISA, read-out: IC50, inhibition of HIV-1 IIIB infection
[4] = CEMx174 5.25 M7 cells, read-out: CC50, CEMx174 5.25 M7 cell
[5] = MT-2 cells, read-out: CC50, MT-2 cell

**Q.** With Maraviroc [reference compound] as the compound, how does the EC50 (SM145/GS 016 (C, R5)) read?
**A.** The EC50 was > 500 nM.

**Q.** And the IC50 (HIV-1 Bal (R5); laboratory-adapted strain Bal, CEMx174 5.25 M7 cells, p24 ELISA, read-out: IC50, inhibition of HIV-1 Bal infection)?
**A.** The IC50 was 1 nM.

**Q.** What about the EC50 (PBL288 (C, R5)) of the same compound?
**A.** The EC50 was > 500 nM.

**Q.** And the EC50 (92/TH/009 (A/E, R5))?
**A.** Its EC50 is > 500 nM.

**Q.** And the EC50 (KNH1135 (A, R5))?
**A.** The EC50 was > 500 nM.

**Q.** And the EC50 (HIV-1 Bal; cell-free virions, 1 h at 4°C, PEG-6000 precipitation, read-out: EC50, inactivation of HIV-1 Bal)?
**A.** The EC50 was > 500 nM.

**Q.** For `CC1(C)CC(NC(=O)C(=O)Nc2ccc(Cl)c(F)c2)CC(C)(C)N1` [FD016, N^1-(4-Chloro-3-Fluorophenyl)-N^2-(2,2,6,6-Tetramethylpiperidin-4-yl) Oxalamide], which IC50 (HIV-1 Bal (R5); Human immunodeficiency virus 1, Bal, combination experiment, alone, read-out: IC50 of FD016, Alone) is on record?
**A.** The IC50 was 18800 nM.

**Q.** What about the IC50 (HIV-1 Bal (R5); Human immunodeficiency virus 1, Bal, in mixture with FD017, read-out: IC50 of FD016, In mixture) of the same compound?
**A.** The IC50 was 1820 nM.

**Q.** What about the IC50 (HIV-1 Bal (R5); [2]) of the same compound?
**A.** The IC50 was 17000 nM.

**Q.** And the IC50 (HIV-1 IIIB (X4); [3])?
**A.** The IC50 was 5930 nM.

**Q.** And the IC50 (HIV-1 IIIB (X4); Human immunodeficiency virus 1, IIIB, combination experiment, alone, read-out: IC50 of FD016, Alone)?
**A.** Its IC50 is 4400 nM.

**Q.** What about the IC50 (HIV-1 IIIB (X4); Human immunodeficiency virus 1, IIIB, in mixture with FD017, read-out: IC50 of FD016, In mixture) of the same compound?
**A.** The IC50 was 1190 nM.

**Q.** And the EC50 (HIV-1 IIIB; alone, read-out: EC50 of FD016, Alone)?
**A.** The EC50 was > 10000 nM.

**Q.** And the EC50 (HIV-1 IIIB; in mixture with FD017, read-out: EC50 of FD016, In mixture)?
**A.** The EC50 was 2510 nM.

**Q.** And the CC50 at 48 h (Cytotoxicity (CCK-8); [4])?
**A.** The CC50 at 48 h was > 50000 nM.

**Q.** And the CC50 at 48 h (Cytotoxicity (CCK-8); [5])?
**A.** Its CC50 at 48 h is > 50000 nM.

**Q.** What about the EC50 (HIV-1 Bal; Human immunodeficiency virus 1, Bal virus inactivation, alone, read-out: EC50 of FD016, Alone) of the same compound?
**A.** The EC50 was > 20000 nM.

**Q.** What about the EC50 (HIV-1 Bal; Human immunodeficiency virus 1, Bal virus inactivation, in mixture with FD017, read-out: EC50 of FD016, In mixture) of the same compound?
**A.** Its EC50 is 2630 nM.

**Q.** What about the “Inhibition of gp120 CD4bs mAbs (B12 and N6) binding to gp120-expressing CHO cells” value (HIV-1 HXB2 gp120) of the same compound?
**A.** The value was “could inhibit the interaction of gp120 and CD4bs-targeting mAbs effectively”.

**Q.** With `O=C(O)c1cc(-c2ccc(/C=C3\SC(=S)N(CCc4ccc(O)cc4)C3=O)o2)ccc1Cl` [FD017, (Z)-2-Chloro-5-(5-((3-(4-Hydroxyphenethyl)-4-oxo-2-Thioxothiazolidin-5-ylidene)methyl)furan-2-yl)benzoic Acid] as the compound, how does the IC50 [1] read?
**A.** Its IC50 is 1360 nM.

**Q.** What about the IC50 (HIV-1 Bal (R5); Human immunodeficiency virus 1, Bal, combination experiment, alone, read-out: IC50 of FD017, Alone) of the same compound?
**A.** The IC50 was 1480 nM.

**Q.** What about the IC50 (HIV-1 Bal (R5); Human immunodeficiency virus 1, Bal, in mixture with FD016, read-out: IC50 of FD017, In mixture) of the same compound?
**A.** Its IC50 is 910 nM.

**Q.** And the IC50 (HIV-1 Bal (R5); [2])?
**A.** The IC50 was 830 nM.

**Q.** And the IC50 (HIV-1 IIIB (X4); [3])?
**A.** The IC50 was 1440 nM.

**Q.** And the IC50 (HIV-1 IIIB (X4); Human immunodeficiency virus 1, IIIB, combination experiment, alone, read-out: IC50 of FD017, Alone)?
**A.** Its IC50 is 1800 nM.

**Q.** What about the IC50 (HIV-1 IIIB (X4); Human immunodeficiency virus 1, IIIB, in mixture with FD016, read-out: IC50 of FD017, In mixture) of the same compound?
**A.** The IC50 was 590 nM.

**Q.** What about the EC50 (HIV-1 IIIB; alone, read-out: EC50 of FD017, Alone) of the same compound?
**A.** Its EC50 is > 10000 nM.

**Q.** What about the EC50 (HIV-1 IIIB; in mixture with FD016, read-out: EC50 of FD017, In mixture) of the same compound?
**A.** The EC50 was 1210 nM.

**Q.** And the CC50 at 48 h (Cytotoxicity (CCK-8); [4])?
**A.** Its CC50 at 48 h is 39800 nM.

**Q.** And the CC50 at 48 h (Cytotoxicity (CCK-8); [5])?
**A.** The CC50 at 48 h was 47900 nM.

**Q.** And the EC50 (HIV-1 Bal; Human immunodeficiency virus 1, Bal virus inactivation, alone, read-out: EC50 of FD017, Alone)?
**A.** Its EC50 is > 5000 nM.

**Q.** What about the EC50 (HIV-1 Bal; Human immunodeficiency virus 1, Bal virus inactivation, in mixture with FD016, read-out: EC50 of FD017, In mixture) of the same compound?
**A.** The EC50 was 1380 nM.

— publication PMC7868322, “Rational Design of A Novel Small-Molecule HIV-1 Inactivator Targeting Both gp120 and gp41 of HIV-1” (Frontiers in Pharmacology, 2021)
